In brackets after ≈: the same amount, converted by molar mass. Where two headings read alike, the source gives them in different places. Where a SMILES comes first, the peptide text is derived from it. Bridges are numbered along the chain shown (N, C = ends). [ ]: non-standard residue; d: D form. The star is where a group is joined. Pyrrole2carbonyl(4,5-Br2) = O=C(c1cc(Br)c(Br)[nH]1)*; Isoxazole(3-CO,5-Ph) = O=C(c1cc(-c2ccccc2)on1)*; X66 = O=C(c1c[nH]c(-c2ccccc2)n1)*; X64 = O=C(c1noc(-c2ccccc2)n1)*; X34 = O=C(c1cc(Br)c(Br)o1)*; X62 = O=C(c1cc(Br)c(Br)s1)*; Dab = NCC[C@H](N)C(=O)O; X61 = O=C(c1ccc(Br)s1)*; Abu = CC[C@H](N)C(=O)O; Dap = NC[C@H](N)C(=O)O
How the values were obtained:
Type in all cases: cell-based
[1] = tested on: Acinetobacter baumannii FADDI-AB030; assay: microbe, parasite or virus in culture
Outline: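 Broth microdilution MIC in cation-adjusted Mueller-Hinton broth per CLSI M100-S24; lipopeptides tested as TFA salts. FADDI-AB030 is a multidrug-resistant clinical isolate. Polymyxin B sulphate served as control.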

[2] = tested on: Acinetobacter baumannii ATCC 17978
Outline: (§1)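 Antibacterial activity is given as MIC from microdilution in CAMHB under the CLSI M100-S24 standard. P. aeruginosa FADDI-PA022 and A. baumannii FADDI-AB034 are multidrug-resistant clinical isolates, while ATCC 17978 is a reference strain.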

[3] = tested on: Pseudomonas aeruginosa FADDI-PA022
Outline: as §1

[4] = tested on: Pseudomonas aeruginosa ATCC 27853
Outline: as §1

[5] = tested on: Klebsiella pneumoniae Kp BM1
Outline: (§2)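 In cation-adjusted Mueller-Hinton broth, each lipopeptide (TFA salt) was titrated against the bacteria by microdilution and the minimum inhibitory concentration recorded per CLSI M100-S24; polymyxin B sulphate ran in parallel.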

[6] = tested on: Enterobacter cloacae FADDI-EC001
Outline: as §2

[7] = tested on: Pseudomonas aeruginosa FADDI-PA038
Outline: as §1

[8] = tested on: Pseudomonas aeruginosa FADDI-PA01
Outline: as §1

[9] = tested on: Enterobacter cloacae FADDI-EC003
Outline: as §1

[10] = tested on: Klebsiella pneumoniae FADDI-KP022
Outline: as §1

[11] = tested on: Klebsiella pneumoniae FADDI-KP032
Outline: as §1

[12] = tested on: Enterobacter cloacae FADDI-EC006
Outline: as §1

[13] = tested on: Acinetobacter baumannii FADDI-AB034
Outline: as §1

SMILES | Minimum inhibitory concentration ([1]; FADDI-AB030) | Minimum inhibitory concentration ([2]; ATCC 17978) | Minimum inhibitory concentration ([3]; FADDI-PA022) | Minimum inhibitory concentration ([4]; ATCC 27853) | Minimum inhibitory concentration ([5]; Kp BM1) | Minimum inhibitory concentration ([6]; FADDI-EC001) | Minimum inhibitory concentration ([7]; FADDI-PA038) | Minimum inhibitory concentration ([8]; FADDI-) | Minimum inhibitory concentration ([9]; FADDI-EC003) | Minimum inhibitory concentration ([10]; FADDI-KP022) | Minimum inhibitory concentration ([11]; FADDI-KP032) | Minimum inhibitory concentration ([12]; FADDI-EC006) | Minimum inhibitory concentration ([13]; FADDI-AB034) | further results
CC[C@@H]1NC(=O)[C@@H](CC(C)C)NC(=O)[C@H](CCN)NC(=O)[C@@H](NC(=O)[C@H](CN)NC(=O)[C@@H](NC(=O)[C@H](CCN)NC(=O)c2cc(Br)c(Br)[nH]2)[C@@H](C)O)CCNC(=O)[C@H]([C@@H](C)O)NC(=O)[C@H](CCN)NC(=O)[C@H](CCN)NC1=O [Compound 77] ({Pyrrole2carbonyl(4,5-Br2)}-[Dab]T[Dap][Dab][Dab][dL][Abu][Dab][Dab]T; lactam 4-C) | 0.25 µg/mL (≈ 0.202 µM) | 0.5 µg/mL (≈ 0.404 µM) | 0.5 µg/mL (≈ 0.404 µM) | 0.25 µg/mL (≈ 0.202 µM) | <0.125 µg/mL | 0.25 µg/mL (≈ 0.202 µM) | 1 µg/mL (≈ 0.808 µM) | 0.25 µg/mL (≈ 0.202 µM) | 0.25 µg/mL (≈ 0.202 µM) | <0.125 µg/mL | 0.25 µg/mL (≈ 0.202 µM) | <0.125 µg/mL | 0.25 µg/mL (≈ 0.202 µM) | 
CC[C@@H]1NC(=O)[C@@H](CC(C)C)NC(=O)[C@H](CCN)NC(=O)[C@@H](NC(=O)[C@H](CN)NC(=O)[C@@H](NC(=O)[C@H](CCN)NC(=O)c2ccc(Br)s2)[C@@H](C)O)CCNC(=O)[C@H]([C@@H](C)O)NC(=O)[C@H](CCN)NC(=O)[C@H](CCN)NC1=O [Compound 78] (X61-[Dab]T[Dap][Dab][Dab][dL][Abu][Dab][Dab]T; lactam 4-C) | 0.5 µg/mL (≈ 0.425 µM) | 0.25 µg/mL (≈ 0.213 µM) | 0.25 µg/mL (≈ 0.213 µM) | 0.25 µg/mL (≈ 0.213 µM) | <0.125 µg/mL | 0.25 µg/mL (≈ 0.213 µM) | 0.5 µg/mL (≈ 0.425 µM) | <0.125 µg/mL | <0.125 µg/mL | 0.25 µg/mL (≈ 0.213 µM) | 0.5 µg/mL (≈ 0.425 µM) | 0.25 µg/mL (≈ 0.213 µM) | 1 µg/mL (≈ 0.85 µM) | 
CC[C@@H]1NC(=O)[C@@H](CC(C)C)NC(=O)[C@H](CCN)NC(=O)[C@@H](NC(=O)[C@H](CN)NC(=O)[C@@H](NC(=O)[C@H](CCN)NC(=O)c2cc(Br)c(Br)o2)[C@@H](C)O)CCNC(=O)[C@H]([C@@H](C)O)NC(=O)[C@H](CCN)NC(=O)[C@H](CCN)NC1=O [Compound 79] (X34-[Dab]T[Dap][Dab][Dab][dL][Abu][Dab][Dab]T; lactam 4-C) | 0.25 µg/mL (≈ 0.202 µM) | 0.5 µg/mL (≈ 0.404 µM) | 0.25 µg/mL (≈ 0.202 µM) | 0.25 µg/mL (≈ 0.202 µM) | 0.25 µg/mL (≈ 0.202 µM) | <0.125 µg/mL | 0.5 µg/mL (≈ 0.404 µM) | 1 µg/mL (≈ 0.807 µM) | <0.125 µg/mL | <0.125 µg/mL | <0.125 µg/mL | 0.25 µg/mL (≈ 0.202 µM) | 0.5 µg/mL (≈ 0.404 µM) | 
CC[C@@H]1NC(=O)[C@@H](CC(C)C)NC(=O)[C@H](CCN)NC(=O)[C@@H](NC(=O)[C@H](CN)NC(=O)[C@@H](NC(=O)[C@H](CCN)NC(=O)c2cc(-c3ccccc3)on2)[C@@H](C)O)CCNC(=O)[C@H]([C@@H](C)O)NC(=O)[C@H](CCN)NC(=O)[C@H](CCN)NC1=O [Compound 80] ({Isoxazole(3-CO,5-Ph)}-[Dab]T[Dap][Dab][Dab][dL][Abu][Dab][Dab]T; lactam 4-C) | 0.5 µg/mL (≈ 0.432 µM) | 0.5 µg/mL (≈ 0.432 µM) | 0.5 µg/mL (≈ 0.432 µM) | 0.5 µg/mL (≈ 0.432 µM) | 0.25 µg/mL (≈ 0.216 µM) | 0.25 µg/mL (≈ 0.216 µM) | 0.5 µg/mL (≈ 0.432 µM) | 0.5 µg/mL (≈ 0.432 µM) | 0.25 µg/mL (≈ 0.216 µM) | <0.125 µg/mL | 0.25 µg/mL (≈ 0.216 µM) | 0.25 µg/mL (≈ 0.216 µM) | 0.5 µg/mL (≈ 0.432 µM) | 
CC[C@@H]1NC(=O)[C@@H](CC(C)C)NC(=O)[C@H](CCN)NC(=O)[C@@H](NC(=O)[C@H](CN)NC(=O)[C@@H](NC(=O)[C@H](CCN)NC(=O)c2noc(-c3ccccc3)n2)[C@@H](C)O)CCNC(=O)[C@H]([C@@H](C)O)NC(=O)[C@H](CCN)NC(=O)[C@H](CCN)NC1=O [Compound 81] (X64-[Dab]T[Dap][Dab][Dab][dL][Abu][Dab][Dab]T; lactam 4-C) | 2 µg/mL (≈ 1.73 µM) | 2 µg/mL (≈ 1.73 µM) | 0.5 µg/mL (≈ 0.431 µM) | 1 µg/mL (≈ 0.863 µM) | 0.5 µg/mL (≈ 0.431 µM) | <0.125 µg/mL | 1 µg/mL (≈ 0.863 µM) | 0.5 µg/mL (≈ 0.431 µM) | <0.125 µg/mL | <0.125 µg/mL | 0.5 µg/mL (≈ 0.431 µM) | 0.25 µg/mL (≈ 0.216 µM) | 4 µg/mL (≈ 3.45 µM) | 
CC[C@@H]1NC(=O)[C@@H](CC(C)C)NC(=O)[C@H](CCN)NC(=O)[C@@H](NC(=O)[C@H](CN)NC(=O)[C@@H](NC(=O)[C@H](CCN)NC(=O)c2c[nH]c(-c3ccccc3)n2)[C@@H](C)O)CCNC(=O)[C@H]([C@@H](C)O)NC(=O)[C@H](CCN)NC(=O)[C@H](CCN)NC1=O [Compound 82] (X66-[Dab]T[Dap][Dab][Dab][dL][Abu][Dab][Dab]T; lactam 4-C) |  |  |  |  |  |  |  |  |  |  |  |  |  | Minimum inhibitory concentration ([1]; A. baumannii FADDI-AB030, CAMHB broth microdilution): 4 µg/mL (≈ 3.46 µM); Minimum inhibitory concentration ([2]; A. baumannii ATCC 17978, CAMHB broth microdilution): 2 µg/mL (≈ 1.73 µM); Minimum inhibitory concentration ([3]; P. aeruginosa FADDI-PA022, CAMHB broth microdilution): 0.5 µg/mL (≈ 0.432 µM); Minimum inhibitory concentration ([4]; P. aeruginosa ATCC 27853, CAMHB broth microdilution): 0.5 µg/mL (≈ 0.432 µM); Minimum inhibitory concentration ([5]; K. pneumoniae Kp BM1, CAMHB broth microdilution): 1 µg/mL (≈ 0.864 µM); Minimum inhibitory concentration ([6]; E. cloacae FADDI-EC001, CAMHB broth microdilution): 0.25 µg/mL (≈ 0.216 µM); Minimum inhibitory concentration ([7]; P. aeruginosa FADDI-PA038, CAMHB broth microdilution): 2 µg/mL (≈ 1.73 µM); Minimum inhibitory concentration ([8]; P. aeruginosa FADDI-PA01, CAMHB broth microdilution): 0.5 µg/mL (≈ 0.432 µM); Minimum inhibitory concentration ([9]; E. cloacae FADDI-EC003, CAMHB broth microdilution): 0.25 µg/mL (≈ 0.216 µM); Minimum inhibitory concentration ([10]; K. pneumoniae FADDI-KP022, CAMHB broth microdilution): <0.125 µg/mL; Minimum inhibitory concentration ([11]; K. pneumoniae FADDI-KP032, CAMHB broth microdilution): 0.5 µg/mL (≈ 0.432 µM); Minimum inhibitory concentration ([12]; E. cloacae FADDI-EC006, CAMHB broth microdilution): 0.5 µg/mL (≈ 0.432 µM); Minimum inhibitory concentration ([13]; A. baumannii FADDI-AB034, CAMHB broth microdilution): 8 µg/mL (≈ 6.91 µM)
CC[C@@H]1NC(=O)[C@@H](CC(C)C)NC(=O)[C@H](CCN)NC(=O)[C@@H](NC(=O)[C@H](CN)NC(=O)[C@@H](NC(=O)[C@H](CCN)NC(=O)c2cc(Br)c(Br)s2)[C@@H](C)O)CCNC(=O)[C@H]([C@@H](C)O)NC(=O)[C@H](CCN)NC(=O)[C@H](CCN)NC1=O [Compound 83] (X62-[Dab]T[Dap][Dab][Dab][dL][Abu][Dab][Dab]T; lactam 4-C) | <0.125 µg/mL | 0.25 µg/mL (≈ 0.199 µM) | 0.25 µg/mL (≈ 0.199 µM) | 0.25 µg/mL (≈ 0.199 µM) | <0.125 µg/mL | 0.5 µg/mL (≈ 0.398 µM) | 0.5 µg/mL (≈ 0.398 µM) | 0.25 µg/mL (≈ 0.199 µM) | 0.25 µg/mL (≈ 0.199 µM) | <0.125 µg/mL | 0.25 µg/mL (≈ 0.199 µM) | <0.125 µg/mL | <0.125 µg/mL | 
